In patent US7695930B2, “Method for the detection, identification and/or quantification of microoganisms with peptidase activity using phenoxazinone derivatives as enzyme substrates” (Biomerieux, priority 2003, dated 2010):

Experiments:
Experiment in all cases: Alanine peptidase detection, substrates with one to three amino acids (Example 15)
Format in all cases: cell-based
Set-up in all cases: key to color of the colony: R=pink; RP=pale pink; I=colorless
Settings in all cases: 50 mg/l
[1] = test system: Listeria monocytogenes (NCTC 11994)
Method: (§1) 1000 ml of Columbia medium was melted in a waterbath at 100° C. and autoclaved at 121° C. for 15 min. It was then cooled to 50° C. in a waterbath.
(§2) This medium was separated into 5 flasks of 200 ml, and then, added at 50° C., as substrates, was that of Example 2 for which A is: • medium 1: L-alanine (L-alanine-9-aminobenzo[a]phenoxazin-5-one or A-ABP), • medium 2: L-alanine-L-alanine (L-alanine-L-alanine-9-aminobenzo-[a]phenoxazin-5-one or AA-ABP), • medium 3: L-alanine-L-alanine-L-alanine (L-alanine-L-alanine-L-alanine-9-aminobenzo[a]phenoxazin-5-one or AAA-ABP), • medium 4: L-alanine-glycine (L-alanine-glycine-9-aminobenzo[a]phenoxazin-5-one or AG-ABP), and • medium 5: glycine-L-alanine (glycine-L-alanine-9-aminobenzo[a]phenoxazin-5-one or GA-ABP), each substrate being solubilized in DMSO and used at a final concentration of 50 mg/l.
(§3) The medium was then poured into Petri dishes.
(§4) Nine microorganism strains derived from the Applicant's collection, suspended in physiological saline, were seeded in colonies on the media prepared in point 15.1 above according to a multipoint inoculation in a proportion of 15 000 cfu/spot. The dishes were incubated at 37° C. for 48 hours. The colonies formed were examined visually after incubation for 24 and 48 hours.
(§5) The results are expressed in Tables 7 and 8 hereinafter according to the rules and the nomenclature stated in paragraph 11.3 and where R=pink, RP=pale pink and I=colorless.

[2] = test system: Pseudomonas aerigunosa (NCTC 10038)
Method: as §1, §2, §3, §4, §5

[3] = test system: Escherichia coli (NCTC 10418)
Method: as §1, §2, §3, §4, §5

[4] = test system: Staphylococcus aureus (NCTC 6571)
Method: as §1, §2, §3, §4, §5

[5] = test system: Micrococcus luteus (NCTC611)
Method: as §1, §2, §3, §4, §5

[6] = test system: Enterobacter clocae (NCTC 11936)
Method: as §1, §2, §3, §4, §5

[7] = test system: Acinetobacter baumannii (ATCC 19606)
Method: as §1, §2, §3, §4, §5

[8] = test system: Staphylococcus epidermis (NCTC 11047)
Method: as §1, §2, §3, §4, §5

Substance	color of the colony ([1]; 24 h)	growth diameter ([1]; 24 h) [mm]	color of the colony ([1]; 48 h)	growth diameter ([1]; 48 h) [mm]	color of the colony ([2]; 24 h)	growth diameter ([2]; 24 h) [mm]	color of the colony ([2]; 48 h)	growth diameter ([2]; 48 h) [mm]	color of the colony ([3]; 24 h)	growth diameter ([3]; 24 h) [mm]	color of the colony ([3]; 48 h)	growth diameter ([3]; 48 h) [mm]	color of the colony ([4]; 24 h)	growth diameter ([4]; 24 h) [mm]	color of the colony ([4]; 48 h)	growth diameter ([4]; 48 h) [mm]	growth diameter ([5]; 24 h) [mm]	growth diameter ([5]; 48 h) [mm]	color of the colony ([6]; 24 h)	growth diameter ([6]; 24 h) [mm]	also measured
L-alanine-L-alanine-9-aminobenzo-[a]phenoxazin-5-one [AA-ABP]	R	2	R	2	R	3	R	3	R	3	R	3	I	3	I	2	0	0	R	3	color of the colony ([6]; 48 h): R; growth diameter ([6]; 48 h): 3 mm; color of the colony ([7]; 24 h): R; growth diameter ([7]; 24 h): 3 mm; color of the colony ([7]; 48 h): R; growth diameter ([7]; 48 h): 3 mm; color of the colony ([8]; 24 h): I; growth diameter ([8]; 24 h): 2 mm; color of the colony ([8]; 48 h): I; growth diameter ([8]; 48 h): 2 mm
L-alanine-L-alanine-L-alanine-9-aminobenzo[a]phenoxazin-5-one [AAA-ABP]	R	2	R	2	R	3	R	3	R	3	R	3	I	3	I	3	1	3	R	3	color of the colony ([5]; 24 h): R; color of the colony ([5]; 48 h): R; color of the colony ([6]; 48 h): R; growth diameter ([6]; 48 h): 3 mm; color of the colony ([7]; 24 h): R; growth diameter ([7]; 24 h): 3 mm; color of the colony ([7]; 48 h): R; growth diameter ([7]; 48 h): 3 mm; color of the colony ([8]; 24 h): I; growth diameter ([8]; 24 h): 2 mm; color of the colony ([8]; 48 h): I; growth diameter ([8]; 48 h): 2 mm
L-alanine-glycine-9-aminobenzo[a]phenoxazin-5-one [AG-ABP]	I	2	I	3	RP	3	R	3	R	3	R	3	I	3	I	3	1	3	R	3	color of the colony ([5]; 24 h): I; color of the colony ([5]; 48 h): R; color of the colony ([6]; 48 h): R; growth diameter ([6]; 48 h): 3 mm; color of the colony ([7]; 24 h): RP; growth diameter ([7]; 24 h): 3 mm; color of the colony ([7]; 48 h): R; growth diameter ([7]; 48 h): 3 mm; color of the colony ([8]; 24 h): I; growth diameter ([8]; 24 h): 3 mm; color of the colony ([8]; 48 h): I; growth diameter ([8]; 48 h): 3 mm
glycine-L-alanine-9-aminobenzo[a]phenoxazin-5-one [GA-ABP]	I	2	R	2	RP	3	R	3	R	3	R	3	I	3	I	3	0	0	R	3	color of the colony ([6]; 48 h): R; growth diameter ([6]; 48 h): 3 mm; color of the colony ([7]; 24 h): R; growth diameter ([7]; 24 h): 3 mm; color of the colony ([7]; 48 h): R; growth diameter ([7]; 48 h): 3 mm; color of the colony ([8]; 24 h): I; growth diameter ([8]; 24 h): 1 mm; color of the colony ([8]; 48 h): I; growth diameter ([8]; 48 h): 2 mm
